Values of other authors as cited in patent US6110927A, “Loratadine for use as an antiarrhythmic” (Pfizer Inc, priority 1999, dated 2000).

Key:
[1] = clinical studies
hKv1.5 channels = settings: only at concentrations much higher than therapeutic plasma levels in man
[2] = both with and without a history of similar arrhythmia

| Compound | efficacy in treating patients with atrial arrhythmias [1] | block of hKv1.5 channels (hKv1.5 channels) | reported cases of atrial fibrillation with loratadine use [2] |
| --- | --- | --- | --- |
| CN(CCOc1ccc(NS(C)(=O)=O)cc1)CCc1ccc(NS(C)(=O)=O)cc1 [dofetilide] | effective in treating patients with atrial arrhythmias | – | – |
| CCOC(=O)N1CCC(=C2c3ccc(Cl)cc3CCc3cccnc32)CC1 [loratadine, ethyl 4-(8-chloro-5,6-dihydro-11-H-benzo [5,6]cyclohepta-[1,2-b]-pyridin-11-ylidene)-1-piperidinecarboxylate] | – | blocked hKv1.5 channels in a concentration-, voltage-, time- and use-dependent manner | at least 2 cases |
